# Experimental data taken from publication doi:10.1101/2020.06.27.175109v1 (biorxiv, 2020).
# Assays:
# [1] = target: T1, CK2α (full-length, NanoLuc fusion) (Homo sapiens, UniProt P68400); test: cell-based; design: species or system HEK293T
# [2] = target: T2, CK2α’ (full-length, NanoLuc fusion) (Homo sapiens, UniProt P19784); test: cell-based; design: species or system HEK293T
# [3] = target: T2, CK2α’ (full-length, NanoLuc fusion); test: NanoBRET tracer displacement, intact HEK293T; format: cell-based; conditions: intact cells, […] h, […] °C, tracer competition
# [4] = target: T1, CK2α (full-length, NanoLuc fusion); test: NanoBRET tracer displacement, intact HEK293T; format: cell-based; conditions: intact cells, […] h, […] °C, tracer competition
# T2 sequence (P19784 whole entry, the tested form may be a part): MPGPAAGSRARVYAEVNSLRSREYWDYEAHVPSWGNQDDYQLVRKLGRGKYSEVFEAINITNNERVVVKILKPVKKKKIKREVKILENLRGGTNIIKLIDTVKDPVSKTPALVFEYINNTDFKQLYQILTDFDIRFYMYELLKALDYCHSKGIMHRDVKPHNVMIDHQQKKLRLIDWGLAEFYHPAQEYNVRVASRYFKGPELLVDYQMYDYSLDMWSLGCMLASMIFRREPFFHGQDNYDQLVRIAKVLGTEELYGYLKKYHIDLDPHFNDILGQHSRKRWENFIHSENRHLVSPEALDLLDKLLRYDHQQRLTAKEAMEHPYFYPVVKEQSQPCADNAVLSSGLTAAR
# T1 sequence (P68400 whole entry, the tested form may be a part): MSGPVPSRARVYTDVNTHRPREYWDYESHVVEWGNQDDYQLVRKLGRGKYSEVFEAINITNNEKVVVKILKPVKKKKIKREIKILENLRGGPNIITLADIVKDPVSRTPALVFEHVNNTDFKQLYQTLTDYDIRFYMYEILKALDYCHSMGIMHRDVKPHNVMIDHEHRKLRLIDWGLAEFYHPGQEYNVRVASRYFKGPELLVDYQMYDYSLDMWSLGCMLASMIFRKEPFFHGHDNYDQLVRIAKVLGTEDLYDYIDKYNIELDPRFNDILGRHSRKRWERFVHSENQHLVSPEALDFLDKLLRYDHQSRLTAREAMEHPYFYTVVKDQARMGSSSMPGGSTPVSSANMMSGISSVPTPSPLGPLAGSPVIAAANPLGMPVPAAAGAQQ
Structure (SMILES),IC50 [1],IC50 [2],IC50 [3],IC50 [4]
"CC(C)(C)OC(=O)N(CCOCCO)c1ccn2ncc(-c3ccc(C#N)c(O)c3)c2n1 [compound 23, tert-Butyl N-[3-(4-cyano-3-hydroxyphenyl)pyrazolo[1,5-a]pyrimidin-5-yl]-N-[2-(2-hydroxyethoxy)ethyl]carbamate]",> 50 µM,> 50 µM,–,–
"CC(C)(C)OC(=O)N1CCOCCOc2cc(ccc2C(=O)O)-c2cnn3ccc1nc23 [compound 32, 13-[(tert-Butoxy)carbonyl]-7,10-dioxa-13,17,18,21-tetraazatetracyclo[12.5.2.1^2,^6.0^17,^20]docosa-1(20),2,4,6(22),14(21),15,18-heptaene-5-carboxylic acid]",–,–,7.39 µM,–
"O=C(O)c1ccc2cc1OCCOCCNc1ccn3ncc-2c3n1 [compound 34, 7,10-Dioxa-13,17,18,21-tetraazatetracyclo[12.5.2.1^2,^6.0^17,^20]docosa-1(20),2,4,6(22),14(21),15,18-heptaene-5-carboxylic acid]",–,–,16.2 µM,5.7 µM
